Blank lines part the entries; values can stand above or below the compound they belong to.
Tests used:
[1] = test system: P-Tyr-100 antiphosphotyrosine monoclonal antibody; assay: Ligand analog screening: fluorescence intensity and polarization vs P-Tyr-100 antibody concentration (Examples 22, 24); assay type: binding, mouse; conditions: for Fmax/Fmin: ratio of fluorescence intensity at lowest (Fmax) to highest (Fmin) antibody concentration, 50 nM ligand analog, P-Tyr-100 0.8 to 500 nM, ex/em 480/535 nm
Procedure: Solutions of test compounds (100 nM) were prepared were prepared in 50 mM Tris-HCl pH 7.5, 10 mM MgCl2, 0.01% Brij-35, 500 μM ATP, 2 mM DTT, 1 mM EGTA. 20 μl aliquots of these solutions were pipetted into the wells of a 384-well microplate. 20 μl aliquots of a serially-diluted […] stock solution of P-Tyr-100 antiphosphotyrosine monoclonal antibody (Cell Signaling Technology, Beverly, Mass.) were added to the wells. The resulting samples contained 50 nM of each ligand analog (Compounds 15, 7, 8, 9, 18 and 19) and antibody concentrations ranging from 0.8 to 500 nM. Fluorescence polarization and intensity of the samples was measured on an EnVision microplate reader (PerkinElmer Life Sciences) using excitation/emission filter settings of 480/535 nm. Increasing fluorescence polarization as a function of antibody concentration (A) provides confirmation of ligand analog binding to the antibody. […] Phosphotyrosine peptide, target ligand, (phospho-pp60 c-src (521-533); TSTEPQY*QPGENL, Bachem California, Inc. Torrance, Calif.) was then added to all samples at a concentration of 10 μM and the fluorescence intensity and polarization measurements were repeated (C, D). […] Displacement of the ligand analogs from antibody is confirmed by depolarization of fluorescence (D compared to A). […] See, FIG. 14.
Compound 12 and Compound 13 were assessed for efficacy using the methods described in Example 22. […] Samples containing 100 nM of Compound 13 and additional components identified in the figure legend were prepared in 50 mM Tris-HCl pH 7.5, 10 mM MgCl2, 0.01% Brij-35, 100 μM ATP, 2 mM DTT, 1 mM EGTA. 100 μL volumes of these samples were transferred to microcuvettes. The fluorescence emission spectrum was recorded for each sample using a Hitachi F-4500 spectrofluorometer (excitation wavelength=520 nm). See, FIG. 15

[2] = test system: Compound 15+P-Tyr-100 complex; assay: Displacement of phosphotyramide ligand analog by phosphotyrosine peptide but not by ATP (Example 17); assay type: binding, mouse; conditions: zero to 1 mM ATP
Procedure: A 5 mM solution of Compound 15 was prepared in water. Separate reactions of 100 nM Compound 15+/−100 nM P-Tyr-100 (Cell Signaling Technology, catalog # 9411) complexes were made in kinase buffer with various amounts of ATP (50 mM Tris, pH 7.5, 10 mM MgCl2, 1 mM EGTA, 0.01% Brij 35, 2 mM DTT, with zero, 0.1, 0.25, 0.5, or 1 mM ATP). The fluorescence emission of each of the ten solutions was measured using a Hitachi F-4500 spectrofluorometer (Ex 450, Em 510, slit width 5 nm for both wavelengths, PMT gain 700 V). After the initial read, 10 μM phospho-pp60 c-src (10 μM final concentration) peptide (521-533) (TSTEPQY*QPGENL) (Bachem, catalog # H-3258) in kinase buffer was added to the antibody:ligand reactions, and the resulting fluorescence intensity was measured on the same instrument at the same settings.

[3] = test system: P-Tyr-100 monoclonal anti-phosphotyrosine antibody; assay: Competitive immunoassay with Compound 15, anti-phosphotyrosine antibody and phosphotyrosine peptide (Example 12); assay type: binding, mouse; conditions: 100 nM ligand analog + 100 nM P-Tyr-100, kinase buffer
Procedure: A 5 mM solution of Compound 15 was prepared in water. In 150 μl kinase buffer (50 mM Tris, pH 7.5, 10 mM MgCl2, 1 mM EGTA, 0.01% Brij 35, 2 mM DTT, 100 μM ATP) several separate reactions were made containing: 1) 100 nM Compound 15; 2) 100 nM […]+100 nM P-Tyr-100 monoclonal anti-phosphotyrosine antibody (Cell Signaling Technology, catalog # 9411); 3) 100 nM Compound 15+100 nM P-Tyr-100+10 μM phospho-pp60 c-src peptide (521-533) (TSTEPQY*QPGENL) from Bachem, catalog # H-3258; 4) 100 nM Compound 15+100 nM P-Tyr-100+10 μM phospho-abl peptide (EAIY*AAPFAKKK), custom peptide MPIJ6 from Anaspec. The resulting fluorescence was measured using a Hitachi F-4500 cuvette fluorimeter using 100 μl cuvettes. The F-4500 was set on ‘emission scan’, with an excitation at 470 nm, slit width of 5 nm, emission scan from 485-650 nm, slit width 5 nm, and the PMT gain was at 700 V.

[4] = molecular target: P-Tyr-100 anti-phosphotyrosine monoclonal antibody; assay: Determination of dissociation constants for antibody-ligand complexes (Example 23); assay type: binding, mouse; conditions: 1 nM test compound, P-Tyr-100 0.02 to 40 nM; fluorescence intensity, single-site saturation fit; read-out: dissociation constant
Procedure: Solutions of Compound 15 and Compound 34 (2 nM) were prepared in 50 mM Tris-HCl pH 7.5, 10 mM MgCl2, 0.01% Brij-35, 500 μM ATP, 2 mM DTT, 1 mM EGTA, 0.5 mg/ml bovine serum albumin. 25 μl aliquots of these solutions were pipetted into the wells of a 384-well microplate. 25 μl aliquots of a serially-diluted 0.08 μM stock solution of P-Tyr-100 anti-phosphotyrosine monoclonal antibody (Cell Signaling Technology, Beverly, Mass.) were added to the wells. The resulting samples contained 1 nM test compound and antibody concentrations ranging from 0.02 to 40 nM. Fluorescence intensities of triplicate samples at each antibody concentration were measured on an EnVision microplate reader (PerkinElmer Life Sciences) using excitation/emission filter settings of 480/535 nm. The mean (n=3) fluorescence intensities were plotted against the corresponding antibody concentrations. Dissociation constants were determined from hyperbolic single-site saturation binding functions fitted to the experimental data by nonlinear regression analysis (SigmaPlot, Jandel Scientific Inc). The dissociation constants obtained were 2.0 nM for Compound 15+P-Tyr-100 and 1.7 nM for Compound 34+P-Tyr-100.

[5] = test system: P-Tyr-100 monoclonal anti-phosphotyrosine antibody; assay: Rapid displacement of the ligand analog by the target ligand, off rate (Example 13); assay type: binding, mouse; conditions: 100 nM Compound 15+100 nM P-Tyr-100; 10 μM phospho-pp60 c-src peptide added
Procedure: A 5 mM solution of Compound 15 was prepared in water. In 150 μl kinase buffer (50 mM Tris, pH 7.5, 10 mM MgCl2, 1 mM EGTA, 0.01% Brij 35, 2 mM DTT, 100 μM ATP) a reaction was made containing 100 nM Compound 15+100 nM P-Tyr-100 monoclonal anti-phosphotyrosine antibody (Cell Signaling Technology, catalog # 9411). The fluorescence was measured over time using a Hitachi F-4500 fluorimeter (Ex 470, Em 510, slit width 5 nm for both wavelengths, PMT gain 700 V). After 15 seconds, 10 μM phospho-pp60 c-src peptide (521-533) (TSTEPQY*QPGENL) from Bachem, catalog # H-3258 was added.

[6] = test system: P-Tyr-100 monoclonal anti-phosphotyrosine antibody; assay: Z′ factor of displacement assay with Compound 34 (Example 14); assay type: binding, mouse; conditions: Compound 34+P-Tyr-100 complex, phospho-pp60 c-src peptide
Procedure: A 2 mM solution of Compound 34 was prepared in water. Two working stocks were prepared in kinase buffer (50 mM Tris, pH 7.5, 10 mM MgCl2, 1 mM EGTA, 0.01% Brij 35, 2 mM DTT, 100 μM ATP): 1) 50 nM of Compound 34+100 nM P-Tyr-100 monoclonal anti-phosphotyrosine antibody (Cell Signaling Technology, catalog # 9411); 2) 100 μM phospho-pp60 c-src peptide (521-533) (TSTEPQY*QPGENL) from Bachem, catalog # H-3258. In two 384-well microplates, […] of the 50 nM Compound 34+100 nM P-Tyr-100 complex was added to 96 wells in each plate. To the same wells, 25 μl of either kinase buffer alone (48 wells each plate) or the 100 μM phospho-pp60 c-src peptide in kinase buffer (48 wells each plate) was added. The fluorescence was measured in a Victor^2 microplate reader (Wallac), 1 read/well for 0.2 sec each at 30000V gain, excitation 485+/−17.5 nm, emission 535+/−12.5 nm.
The Z′ statistic was calculated using equation 5 from Zhang, J.-H., Chung, T., D., Y., and Oldenburg, K. R. (1999) A simple statistical parameter for use in evaluation and validation of high throughput screening assays. J. Biomol. Screen. 4, 67-73. […] In other words, there is a 4-fold increase in fluorescent signal after the ligand analog is displaced by the phosphorylated peptide. See, FIG. 6.

[7] = test system: Rabbit anti-Akt polyclonal antibody; assay: Binding of ethanolamine phosphate ligand analog by anti-Akt antibody (Example 10); conditions: 50 nM compound, antibody zero to 250 nM
Procedure: A 5 mM solution of BODIPY FL ethanolamine phosphate Compound 2 was made in water. A 2.5 mM solution of BODIPY FL ethanolamine (Compound 1) was made in 50% (v/v) DMSO, See Example 1. Rabbit anti-Akt polyclonal antibody (Cell Signaling Technology, catalog # 9611) was serially diluted in 5 μl 50 mM Tris buffer, pH 7.5 in a black, 384-well flat-bottom Packard ProxiPlate preblocked with 0.25% (v/v) Mowiol. After the antibody was serially diluted in the plate, 5 μl of either Compound 2 or Compound 1 was added to the same wells. The final concentration of both compounds in the wells was each 50 nM. The final antibody concentration in the wells was zero to 250 nM. The fluorescence intensity was measured on an EnVision microplate reader (Perkin Elmer), PMT 1 gain 155, PMT 2 gain 191, excitation light 76%, 100 flashes at 9 mM height.

[8] = test system: Compound 15+P-Tyr-100 complex; assay: Selectivity of displacement of Compound 15 by peptides or proteins (Example 16); assay type: binding, mouse; conditions: peptides or proteins serially diluted from 80 μM
Procedure: A 5 mM solution of Compound 15 was prepared in water. In kinase buffer (50 mM Tris, pH 7.5, 10 mM MgCl2, 1 mM EGTA, 0.01% Brij 35, 2 mM DTT, 100 μM ATP) 80 μM solutions of six different peptides or proteins were made: 1) phospho-pp60 c-src peptide (521-533) (TSTEPQY*QPGENL) (Bachem, catalog # H-3258); 2) non-phospho-pp60 c-src peptide (521-533) (TSTEPQYQPGENL) (Bachem, catalog # H-3256); 3) phospho-DSIP peptide (WAGGDAS*GE) (SynPep, catalog # 3920); 4) phospho-RRA(pT)VA peptide (RRAT*VA) (Sigma, catalog V248A); 5) beta-casein (Sigma, catalog # C6905); 6) bovine serum albumin (Sigma, catalog # A7284). These peptides or proteins were serially diluted 2-fold in 20 μl in a 0.025% Mowiol-blocked 384-well black Packard OptiPlate. 20 μl of a 2× mix of 50 nM of Compound 15+100 nM P-Tyr-100 (Cell Signaling Technology, catalog # 9411) complex in kinase buffer was added to the wells. The fluorescence intensity was measured on an EnVision microplate reader (Perkin Elmer), PMT 1 gain 155, PMT 2 gain 183, excitation light 60%, 100 flashes at 9 mM height.

Compound: 6-FITC phosphotyramide [Compound 19]
Fmax/Fmin [1]: 1.6

displacement of the phosphotyramide ligand analog [2]: does not displace
Compound: Nc1ncnc2c1ncn2[C@@H]1O[C@H](COP(=O)(O)OP(=O)(O)OP(=O)(O)O)[C@@H](O)[C@H]1O [ATP]

Compound: O=C(CSc1c(F)c(F)c(C(=O)O)c(-c2c3cc(F)c(=O)cc-3oc3cc(O)c(F)cc23)c1F)NCCc1ccc(OP(=O)(O)O)cc1 [Compound 7, Oregon Green 514 phosphotyramide]
Fmax/Fmin [1]: 4.0

Compound: O=C(NCCc1ccc(OP(=O)(O)O)cc1)c1ccc(-c2c3ccc(=O)cc-3oc3cc(O)ccc23)c(C(=O)O)c1 [Compound 8, 5-FAM phosphotyramide]
performance in displacement assay, 6-position vs 5-position ([1]; fluorescence intensity readout): superior performance
Fmax/Fmin [1]: 1.3

Compound: O=C(NCCc1ccc(OP(=O)(O)O)cc1)c1ccc(C(=O)O)c(-c2c3ccc(=O)cc-3oc3cc(O)ccc23)c1 [Compound 9, 6-FAM phosphotyramide]
binding affinity for the antibody, 6-isomer compared to 5-isomer ([1]; compared to Compound 8): increased binding affinity
quenching by the antibody, 6-isomer compared to 5-isomer ([1]; compared to Compound 8): increased quenching
Fmax/Fmin [1]: 3.2

Compound: CN(C)c1ccc2c(-c3cc(C(=O)NCCc4ccc(OP(=O)([O-])O)cc4)ccc3C(=O)O)c3ccc(=[N+](C)C)cc-3oc2c1 [Compound 12]
fluorescence intensity change on antibody binding ([1]; methods of Example 22): little or no analytically useful fluorescence intensity change
fluorescence polarization change on antibody binding ([1]; methods of Example 22): large fluorescence polarization changes

Compound: O=C(NCCc1ccc(OP(=O)(O)O)cc1)c1ccc(C(=O)O)c(-c2c3cc(F)c(=O)cc-3oc3cc(O)c(F)cc23)c1 [Compound 15, Oregon Green 488 6-phosphotyramide]
Fmax/Fmin [1]: 5.4
quenching of the reporter molecule on addition of P-Tyr-100 antibody [3]: significantly quenched
Kd [4]: 2 nM
off rate [5]: 0.14 s⁻¹

Compound: O=C(O)c1cc(NC(=S)NCCc2ccc(OP(=O)(O)O)cc2)ccc1-c1c2ccc(=O)cc-2oc2cc(O)ccc12 [Compound 18, 5-FITC phosphotyramide]
Fmax/Fmin [1]: 1.7

Compound: NC(=O)C(Cc1ccc(OP(=O)(O)O)cc1)NC(=O)c1ccc(C(=O)O)c(-c2c3cc(F)c(=O)cc-3oc3cc(O)c(F)cc23)c1 (stereo not shown) [Compound 34]
increase in fluorescent signal after the ligand analog is displaced by the phosphorylated peptide [6]: 4 fold
Kd [4]: 1.7 nM

quenching of ligand analog when bound by the antibody [7]: slightly quenched
Compound: BODIPY FL ethanolamine phosphate [Compound 2]

displacement of the ligand analog (Compound 15) [8]: significantly displaces
Compound: TSTEPQY*QPGENL [phospho-pp60 c-src peptide]

From patent publication US7282339B2, “Competitive immunoassay” (Invitrogen Corporation, priority 2003, dated 2007)
